In US9340554B2, “IRAK inhibitors and uses thereof” (Nimbus Iris, Inc., priority 2011, dated 2016) one finds IC50 data, which are given here for 30 compounds.

Molecules are shown by their SMILES. pIC50: −log10 of the molar value. Like-named read-outs stand apart in the source and are kept apart here.

The experiment addresses T1, IRAK4 (Homo sapiens, UniProt Q9NWZ3).
T1 construct: purchased CARNA Bioscience 09-145
T1 sequence (Q9NWZ3 1-460): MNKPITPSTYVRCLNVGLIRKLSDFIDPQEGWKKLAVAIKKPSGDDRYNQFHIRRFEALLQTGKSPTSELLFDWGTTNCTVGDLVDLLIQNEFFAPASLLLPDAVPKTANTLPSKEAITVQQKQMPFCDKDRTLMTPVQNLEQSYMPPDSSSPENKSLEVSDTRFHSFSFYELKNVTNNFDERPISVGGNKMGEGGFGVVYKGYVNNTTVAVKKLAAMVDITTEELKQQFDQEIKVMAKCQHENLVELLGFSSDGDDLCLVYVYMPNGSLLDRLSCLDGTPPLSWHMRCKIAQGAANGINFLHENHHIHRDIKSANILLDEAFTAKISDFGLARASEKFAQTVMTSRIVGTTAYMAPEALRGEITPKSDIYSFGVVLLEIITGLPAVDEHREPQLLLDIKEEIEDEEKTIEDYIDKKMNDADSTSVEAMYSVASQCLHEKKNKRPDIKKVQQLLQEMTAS
As to the kind of experiment: IRAK-4 activity inhibition assay (Caliper, Peptide 8, 37 μM ATP). The class given is biochemical. The conditions noted are these: 28° C. 40 minutes. The method, then:
A 1× kinase base buffer was prepared from 50 mM HEPES, pH 7.5 and 0.0015% Brij-35. A stop buffer was prepared from 100 mM HEPES, pH 7.5, 0.015% Brij-35, 0.2% Coating Reagent #3, and 50 mM EDTA.
Test compound was diluted to 50× of the final desired highest inhibitor concentration in reaction by 100% DMSO. 100 ul of this compound dilution was transferred to a well in a 96-well plate.
Test compound was serially diluted by transferring 30 μl to 60 μl of 100% DMSO in the next well and so forth for a total of 10 concentrations. 100 μl of 100% DMSO was added to two empty wells for no compound control and no enzyme control in the same 96-well plate.
A new 96-well plate was marked as intermediate plate. 5 μl of compound serial dilution was transferred from source plate to the corresponding wells of the intermediate plate. 45 μl of 1× kinase base buffer (KB buffer) was added to each well of the intermediate plate. The intermediate plate was placed for 10 min on a shaker.
5 μl of each well was transferred from the 96-well intermediate plate to a 384-well plate in duplicates. […] A2 of the 96-well plate is transferred to A3 and A4 of the 384-well plate, and so on.
IRAK4 and DTT in 1× kinase base buffer was added.
Assay plate already contained 5 μl of compound in 10% DMSO. Added 10 μl of 2.5× enzyme solution to each well of the 384-well assay plate, except no enzyme control wells. […] Added 10 μl of 1× kinase base buffer to no enzyme control wells in the assay plate. Incubated at room temperature for 10 min.
Added 10 μl of 2.5× peptide solution to each well of the 384-well assay plate. […] Incubated at 28° C. for 40 minutes. Added 25 μl of stop buffer to stop reaction. Collected data on Caliper.
Copied conversion % data from Caliper program. Converted conversion % values to percent inhibition values. Percent inhibition=(max−conversion %)/(max−min)*100, where “max” means the conversion % of DMSO control and “min” means the conversion % of no enzyme control.
The compound numbers correspond to the compound numbers in Table 1. […] “NA” stands for “not assayed.”

[1] abbreviates: 3.5 nM IRAK4, 1.5 μM Peptide 8, 37 μM ATP, read-out: IRAK-4 activity inhibition IC50.

The term pIC50 denotes −log10 of the IC50, conventionally taken in molar units. Consider `CCC1CCc2c(sc3ncnc(N[C@H]4CC[C@H](NC)CC4)c23)C1` (stereo partly drawn) [Compound I-58, trans-N1-(7-ethyl-5,6,7,8-tetrahydrobenzo[4,5]thieno[2,3-d]pyrimidin-4-yl)-N4-methylcyclohexane-1,4-diamine], for which the negative logarithm of the IC50 (pIC50) under setting [1] was over 5.30.
With `CN(CC(N)=O)[C@H]1CC[C@H](Nc2ncnc3sc4c(c23)CCC4)CC1` [Compound I-122, 2-(((1r,4r)-4-((6,7-dihydro-5H-cyclopenta[4,5]thieno[2,3-d]pyrimidin-4-yl)amino)cyclohexyl)(methyl)amino)acetamide], the pIC50 under setting [1] was over 5.30.
In the case of `N[C@H]1CC[C@H](Nc2ncnc3sc4c(c23)CCC4)CC1` [Compound I-10, trans-N^1-(6,7-dihydro-5H-cyclopenta[4,5]thieno[2,3-d]pyrimidin-4-yl)cyclohexane-1,4-diamine], under setting [1], the pIC50 is over 5.30.
For the compound `CN(Cc1ccco1)[C@H]1CC[C@H](Nc2ncnc3sc4c(c23)CCC4)CC1` [Compound I-101, 1-N-(furan-2-ylmethyl)-1-N-methyl-4-N-[7-thia-9,11-diazatricyclo[6.4.0.0^[2,6]]dodeca-1(8),2(6),9,11-tetraen-12-yl]cyclohexane-1,4-diamine], the pIC50 under setting [1] was over 5.30.
As for `CC(C)N[C@H]1CC[C@@H](Nc2ncnc3sc4c(c23)CCC4)CC1` [Compound I-161], under setting [1], the negative-log IC50 (pIC50) is under 4.30.
Turning to `CN(C)[C@H]1CC[C@H](Oc2ncnc3sc4c(c23)CCC4)CC1` [Compound I-67, trans-4-((6,7-dihydro-5H-cyclopenta[4,5]thieno[2,3-d]pyrimidin-4-yl)oxy)-N,N-dimethylcyclohexanamine], the pIC50 under setting [1] was over 5.30.
Same read-out and setting: the result for `N[C@H]1CC[C@H](Oc2ncnc3sc4c(c23)CCC4)CC1` [Compound I-61, trans-4-((6,7-dihydro-5H-cyclopenta[4,5]thieno[2,3-d]pyrimidin-4-yl)oxy)cyclohexanamine] reads over 5.30; that for `CCC1CCc2c(sc3ncnc(N4CCC(C(=O)NO)CC4)c23)C1` (stereo not drawn) [Compound I-14], over 5.30.
As to `c1nc(OCC2CCNCC2)c2c3c(sc2n1)CCC3` [Compound I-60], under setting [1], the negative-log IC50 (pIC50) was 4.70 to 5.30.
With `CC(C)CN(C)[C@H]1CC[C@H](Nc2ncnc3sc4c(c23)CCC4)CC1` [Compound I-127, 1-N-methyl-1-N-(2-methylpropyl)-4-N-[7-thia-9,11-diazatricyclo[6.4.0.0[2,6]]dodeca-1(8),2(6),9,11-tetraen-12-yl]cyclohexane-1,4-diamine], under setting [1], the negative-log IC50 (pIC50) is over 5.30.
For the compound `CN(CCCc1ccccc1)[C@H]1CC[C@H](Nc2ncnc3sc4c(c23)CCC4)CC1` [Compound I-118], under setting [1], the pIC50 was over 5.30.
On the same count and under the same terms, the result for `CN(Cc1c(F)cccc1Cl)[C@H]1CC[C@H](Nc2ncnc3sc4c(c23)CCC4)CC1` [Compound I-99, 1-N-[(2-chloro-6-fluorophenyl)methyl]-1-N-methyl-4-N-[7-thia-9,11-diazatricyclo[6.4.0.0^[2,6]]dodeca-1(8),2(6),9,11-tetraen-12-yl]cyclohexane-1,4-diamine] reads over 5.30.
For the compound `C[C@@H]1CCc2sc3ncnc(N[C@H]4CC[C@H](O)CC4)c3c2C1` [Compound I-47, trans-4-(((R)-6-methyl-5,6,7,8-tetrahydrobenzo[4,5]thieno[2,3-d]pyrimidin-4-yl)amino)cyclohexanol], the pIC50 under setting [1] is 4.70 to 5.30.
Turning to `CN[C@H]1CC[C@H](Nc2ncnc3sc4c(c23)CC(C)(C)CC4)CC1` [Compound I-41, trans-N^1-(6,6-dimethyl-5,6,7,8-tetrahydrobenzo[4,5]thieno[2,3-d]pyrimidin-4-yl)-N^4-methylcyclohexane-1,4-diamine], under setting [1], the negative logarithm of the IC50 (pIC50) was over 5.30.
On to `CNCC1CCN(c2ncnc3sc4c(c23)CCC4)CC1` [Compound I-62], for which the pIC50 under setting [1] is 4.70 to 5.30.
On the same count and under the same terms, the result for `c1nc(N[C@H]2CC[C@@H](N3CCOCC3)CC2)c2c3c(sc2n1)CCC3` [Compound I-160, N-((1s,4s)-4-morpholinocyclohexyl)-6,7-dihydro-5H-cyclopenta[4,5]thieno[2,3-d]pyrimidin-4-amine] reads 4.70 to 5.30; that for `CC1(C)CCc2sc3ncnc(N[C@H]4CC[C@H](O)CC4)c3c2C1` [Compound I-43, trans-4-((6,6-dimethyl-5,6,7,8-tetrahydrobenzo[4,5]thieno[2,3-d]pyrimidin-4-yl)amino)cyclohexanol], 4.70 to 5.30; that for `CC1CCc2c(sc3ncnc(N4CCC5(CC4)NC(=O)NC5=O)c23)C1` (stereo not drawn) [Compound I-28], 4.70 to 5.30.
On the same count and under the same terms, the result for `CN(Cc1ccncc1Cl)[C@H]1CC[C@H](Nc2ncnc3sc4c(c23)CCC4)CC1` [Compound I-100, 1-N-[(3-chloropyridin-4-yl)methyl]-1-N-methyl-4-N-[7-thia-9,11-diazatricyclo[6.4.0.0^[2,6]]dodeca-1(8),2(6),9,11-tetraen-12-yl]cyclohexane-1,4-diamine] reads over 5.30.
On the same count and under the same terms, under `CN[C@H]1CC[C@H](Nc2ncnc3sc(C)c(C)c23)CC1` [Compound I-44, trans-N^1-(5,6-dimethylthieno[2,3-d]pyrimidin-4-yl)-N^4-methylcyclohexane-1,4-diamine] stands over 5.30; under `NCC1CCN(c2ncnc3sc4c(c23)CCC4)CC1` [Compound I-63], 4.70 to 5.30.
In the case of `CN(CC(=O)N1CCCCC1)[C@H]1CC[C@H](Nc2ncnc3sc4c(c23)CCC4)CC1` [Compound I-129, 2-[methyl[4-([7-thia-9,11-diazatricyclo[6.4.0.0[2,6]]dodeca-1(12),2(6),8,10-tetraen-12-yl]amino)cyclohexyl]amino]-1-(piperidin-1-yl)ethan-1-one], the negative logarithm of the IC50 (pIC50) under setting [1] was over 5.30.
For the compound `CCN[C@H]1CC[C@H](Nc2ncnc3sc4c(c23)CCC4)CC1` [Compound I-71, trans-N^1-(6,7-dihydro-5H-cyclopenta[4,5]thieno[2,3-d]pyrimidin-4-yl)-N^4-ethylcyclohexane-1,4-diamine], the pIC50 under setting [1] is over 5.30.
In the case of `C[N+](C)(C)[C@H]1CC[C@H](Nc2ncnc3sc4c(c23)CCC4)CC1` [Compound I-139, (1r,4r)-4-((6,7-dihydro-5H-cyclopenta[4,5]thieno[2,3-d]pyrimidin-4-yl)amino)-N,N,N-trimethylcyclohexanaminium iodide], under “IRAK-4 activity inhibition IC50, 3.5 nM IRAK4, 1.5 μM Peptide 8, 37 μM ATP”, the negative logarithm of the IC50 (pIC50) was 4.30 to 4.70.
As to `c1nc(N[C@H]2CC[C@H](N3CCCCC3)CC2)c2c3c(sc2n1)CCC3` [Compound I-143, N-((1r,4r)-4-(piperidin-1-yl)cyclohexyl)-6,7-dihydro-5H-cyclopenta[4,5]thieno[2,3-d]pyrimidin-4-amine], the pIC50 under setting [1] is over 5.30.
For the compound `CN(CCC(=O)O)[C@H]1CC[C@H](Nc2ncnc3sc4c(c23)CCC4)CC1` [Compound I-108, 3-[methyl[4-([7-thia-9,11-diazatricyclo[6.4.0.0^[2,6]]dodeca-1(8),2(6),9,11-tetraen-12-yl]amino)cyclohexyl]amino]propanoic acid], the pIC50 under setting [1] was over 5.30.
In the case of `CN(Cc1cnccn1)[C@H]1CC[C@H](Nc2ncnc3sc4c(c23)CCC4)CC1` [Compound I-105], the pIC50 under setting [1] was over 5.30.
On to `CN(C)[C@H]1CC[C@H](Nc2ncnc3sc4c(c23)CCCC4)CC1` [Compound I-50, trans-N^1,N^1-dimethyl-N^4-(5,6,7,8-tetrahydrobenzo[4,5]thieno[2,3-d]pyrimidin-4-yl)cyclohexane-1,4-diamine], for which, under setting [1], the negative logarithm of the IC50 (pIC50) is over 5.30.
Regarding `OC1CCCC(Nc2ncnc3sc4c(c23)CCC4)C1` (mixture of isomers) [Compound I-15, 3-((6,7-dihydro-5H-cyclopenta[4,5]thieno[2,3-d]pyrimidin-4-yl)amino)cyclohexanol], the negative logarithm of the IC50 (pIC50) under setting [1] was 4.70 to 5.30.
Regarding `CN(C)CC1CC(Oc2ncnc3sc4c(c23)CCC4)C1` (stereo not drawn) [Compound I-141, 1-(3-((6,7-dihydro-5H-cyclopenta[4,5]thieno[2,3-d]pyrimidin-4-yl)oxy)cyclobutyl)-N,N-dimethylmethanamine], the pIC50 under setting [1] was 4.70 to 5.30.
